Legend:
[1] = system: A549 subcutaneous xenografts; test: subcutaneous A549 xenograft with localized radiation; assay type: in vivo, mouse; conditions: NU5455 30 mg/kg oral 30 min before 10 Gy
Method: Subcutaneous non–small cell lung cancer xenografts were generated in CD-1 nude or BALB/c nude mice using A549 and Calu-6 cells, respectively, as previously described ([53]). When tumors reached 100 mm^3, mice were randomized into 4 groups (n = 7–9 per group) to receive (a) vehicle (orally) 30 minutes before mock radiation, (b) NU5455 (30 mg/kg orally) 30 minutes before mock radiation, (c) targeted tumor radiation at a single dose of 3.3 or 10 Gy, or (d) NU5455 (30 mg/kg orally) 30 minutes before 3.3 Gy or 10 Gy targeted tumor radiation. For targeted irradiation of subcutaneous tumors, anesthetized mice were restrained in a lead-shielded container with only the tumor exposed, and x-ray radiation applied using an RS320 irradiation system (Gulmay Medical) at a dose rate of 1.82 Gy/min. […]
NSCLC subcutaneous xenografts were generated as previously described ( 53). […] Mouse weights and tumor volumes (1/2 x length x width x depth) were measured three times a week.
Targeted radiotherapy in subcutaneous and orthotopic NSCLC xenograft models When subcutaneous xenografts reached 100 mm3, mice were randomized into four groups (n = 7 - 11/group): (i) N-Methyl-2-pyrrolidone (NMP): 30% Encapsin : PEG400 (1:6:3 v/v/v) vehicle p.o. 30 minutes prior to mock radiation. […] The remaining mice were monitored for tumor growth until the sizes of tumo rs reached 400 mm 3 or up to 38 days after initiation of […]

HAP-1 DNA-PK–null cells = test: clonogenic survival with IR; assay type: cell-based, human; conditions: 5 μM concomitant
Method: (§1) Exponentially growing HAP-1 DNA-PK proficient or deficient cells were seeded into 6-well plates and allowed to re-attach. Cells were then incubated with vehicle (DMSO) or NU5455 (5 µM) 1 hour prior to irradiation and for a further 24 hours post-irradiation. Cells were then washed in PBS and incubated in drug-free medium to allow for colony formation.
(§2) To quantify the number of proliferating versus confluent cells, cells were pulsed with 5-ethynyl-2’-deoxyuridine (EdU), and labeled using the Click-iT Plus EdU Alexa Fluor 647 Flow Cytometry Assay Kit together with FxCycle Violet Stain to label DNA (both Thermo Fisher) following the manufacturer’s instructions. Samples of cells taken from tho se used in the clonogenic assay were used to confirm the percentage of cells in each cell cycle phase.
(§3) Samples were acquired on a Symphony A5 flow cytometer (Becton Dickinson, UK).
(§4) Cell cycle phase status was also confirmed by microscopy, using cells grown on coverslips i n 6-well plates. […] Coverslips were mounted using Prolong Glass with NucBlue (ThermoFisher) and images were acquired on the Leica TCS SP8 confocal fluorescence […]
(§5) Treated cells were fixed with 10% (w/v) trichloroacetic acid (Fisher) at 4°C overnight. Cells were stained with sulphorhodamine B (SRB, 0.4% (w/v) in water), and cell density quantified

[2] = system: HAP-1 cells that express 1 copy of PRKDC; test: clonogenic survival with IR; assay type: cell-based, human; conditions: 5 μM concomitant
Method: as §1, §2, §3, §4, §5

SMILES: CN(C(=O)CN1CCOCC1)c1ccc2sc3c(-c4cccc5c(=O)cc(N6CC7CCC(C6)O7)oc45)cccc3c2c1 [NU5455]
- antitumor activity with radiation [1]: enhanced the antitumor activity
- response to IR (clonogenic) (HAP-1 DNA-PK–null cells): did not alter the response
- clonogenic cell-killing effect of 1–4 Gy IR [2]: markedly increased

Reference: paper PMC6934184, “Selective DNA-PKcs inhibition extends the therapeutic index of localized radiotherapy and chemotherapy” (The Journal of Clinical Investigation, 2019)
